Experimental data: patent US6498252B1, “Pyrimidine-2,4,6-trione derivatives, processes for their production and pharmaceutical agents containing these compounds” (priority 1999, dated 2002)

What follows are compounds tested against T1, MMP-8, catalytic domain (Homo sapiens, UniProt P22894) (assay: Inhibition of MMP-8 (HNC) catalytic domain, fluorogenic substrate cleavage). Conditions: not given.
T1 construct: Enzyme: 8 nM catalytic domain (Met80-Gly242) of human neutrophil collagenase (MMP-8); made in house
Assay type: biochemical
Experimental: In order to determine the inhibition of MMPs, for example HNC (MMP-8), the catalytic domain (isolation and purification see for example Schnierer, S., Kleine, T., Gote, T., Hillemann, A., Knäuper, V., Tschesche, H.,Biochem. Biophys. Res. Commun. (1993) 191, 319-326) were incubated with inhibitors having various concentrations. Subsequently, the initial reaction rate in the conversion of a standard substrate was measured in a manner analogous to Grams F. et al., FEBS 335 (1993) 76-80).
The results awee evaluated by plotting the reciprocal reaction rate against the concentration of the inhibitor. The inhibition constant (Ki) is obtained as the negative section of the abscissis by the graphical method according to Dixon, M., Biochem. J. (1953) 55, 170-202.
The synthetic collagenase substrate was a heptapeptide which is coupled, at the C terminus, with DNP (dinitrophenol). Said DNP residue quenched by steric hindrance the fluorescence of the adjacent tryptophane of the heptapeptide. After cleavage of a tripeptide which includes the DNP group, the tryptophane fluorescence increased. The proteolytic cleavage of the substrate therefore was measured by the fluorescence value.
The assay was performed at 25° C. in a freshly prepared 50 mM Tris buffer (pH 8.0) treated with dithiozone to remove traces of heavy metals. 4 mM CaCl2 was added and the buffer saturated with argon. Stock solutions of adamalysin II were prepared by centrifugation of the protein from an ammonium sulfate suspension and subsequent dissolution in the assay buffer. Stock solutions of collagenase were diluted with the assay buffer. Enzyme concentrations were determined by uv measurements (ε280=2.8 10^4 M^−1 cm^−1, ε288: 2.2 10^4 M^−. cm^−1) and the stock solutions were stored in the cold. This solution was diluted 1:100 to obtain the final 16 nM assay concentration. The fluorogenic substrate DNP-Pro-Leu-Gly-Leu-Trp-Ala-D-Arg-NH2 with a Km of 52 μM was used at a concentration of 21.4 μM; for the Ki determination a 12.8 μM concentration has also been used. Substrate fluorescence was measured at an excitation and emission wavelength of λ=320 and 420 nm, respectively, on a spectrofluorimeter (Perkin Elmer, Model 650-40) equipped with a thermostated cell holder. Substrate hydrolysis was monitored for 10 minutes. immediately after adding the enzyme. All reactions were performed at least in triplicate. The Ki values-of the inhibitors were calculated from the intersection point of the straight lines obtained by the plots of vo/vi vs. [concentration of inhibitor], whereas IC50 values were calculated from plots of vi/vo [concentration of inhibitor] by non-linear regression with simple robust weighting.
50 mM Tris/HCI pH 7.6 (Tris=Tris-(hydroxymethyl)-aminomethan)
100 mM NaCl/10 mM CaCl2/5% MeOH (ff necessary)
Enzyme: 8 nM catalytic domain (Met80-Gly242) of human neutrophil collagenase (MMP-8)
10 microM DNP-Pro-Leu-Gly-Leu-Trp-Ala-D-Arg-NH2
A solution of the enzyme and inhibitor in assay buffer (25° C.) was prepared. The reaction was started by giving the substrate into the solution. The cleavage of the fluorogenic substrate was followed by fluorescence spectroscopy with an excitation and emission wavelength of 280 and 350 nm, respectively. The IC50 value was calculated as the inhibitor concentration, which is necessary to decrease the velocity of the reaction to the half in comparison to the reaction without inhibitor.
118 cited in the patent application EP0869947

T1 sequence (P22894 100-262 limits assumed): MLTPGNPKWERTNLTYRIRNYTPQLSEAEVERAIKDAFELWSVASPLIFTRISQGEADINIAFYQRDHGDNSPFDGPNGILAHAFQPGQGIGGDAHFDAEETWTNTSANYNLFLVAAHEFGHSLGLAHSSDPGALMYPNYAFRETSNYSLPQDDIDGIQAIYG

`NS(=O)(=O)c1ccc(N2CCN(C3(c4ccc(Oc5ccc(Cl)cc5)cc4)C(=O)NC(=O)NC3=O)CC2)cc1` [Example 5 - no. 9, 4-(4-5-[4-(4-Chloro-phenoxy)-phenyl]-2,4,6-trioxo-hexahydro-pyrimidin-5-yl-piperazin-1-yl)-benzenesulfonamide] and `O=C1NC(=O)C(c2ccc(Oc3ccc(Cl)cc3)cc2)(N2CCN(c3ccc(S(=O)(=O)N(CCO)CCO)cc3)CC2)C(=O)N1` [Example 5 - no. 10, 4-(4-5[-4-(4-Chloro-phenoxy)-phenyl]-2,4,6-trioxo-hexahydro-pyrimidin-5-yl-piperazin-1-yl)-N,N-bis-(2-hydroxy-ethyl)-benzenesulfonamide] are within 1.5-fold of each other in IC50: 12 nM for the first, 9 nM for the second.

`O=C1NC(=O)C(c2ccc(Oc3ccccc3)cc2)(N2CCN(c3ccc(S(=O)(=O)NCC(O)CO)cc3)CC2)C(=O)N1` (stereo not shown) [Example 5 - no. 11, N-(2,3-Dihydroxy-propyl)-4-4-[2,4,6-trioxo-5-(4-phenoxy-phenyl)-hexahydro-pyrimidin-5-yl]-piperazin-1-yl-benzenesulfonamide] and `O=C1NC(=O)C(c2ccc(Oc3ccccc3)cc2)(N2CCN(c3ccc(S(=O)(=O)NC(CO)CO)cc3)CC2)C(=O)N1` [Example 5 - no. 12, N-(2-Hydroxy-1-hydroxymethyl-ethyl)-4-4-[2,4,6-trioxo-5-(4-phenoxy-phenyl)-hexahydro-pyrimidin-5-yl]-piperazin-1-yl-benzenesulfonamide] are within 1.5-fold of each other in IC50: 4.5 nM for the first, 5.5 nM for the second.

Going from `O=C1NC(=O)C(c2ccc(Oc3ccccc3)cc2)(N2CCN(c3ccc(S(=O)(=O)NCCOCCOCCO)cc3)CC2)C(=O)N1` [Example 5 - no. 13, N-2-[2-(2-Hydroxy-ethoxy)-ethoxy]-ethyl-4-4-[2,4,6-trioxo-5-(4-phenoxy-phenyl)-hexahydro-pyrimidin-5-yl]-piperazin-1-yl-benzenesulfonamide] to `O=C1NC(=O)C(c2ccc(Oc3ccccc3)cc2)(N2CCN(c3ccc(S(=O)(=O)NCC4COC(=O)O4)cc3)CC2)C(=O)N1` (stereo not shown) [Example 6, N-(2-Oxo-[1,3]dioxolan-4-ylmethyl)-4-4-[2,4,6-trioxo-5-(4-phenoxy-phenyl)-hexahydro-pyrimidin-5-yl]-piperazin-1-yl-benzenesulfonamide], the IC50 rises from 6 nM to 9 nM (1.5-fold). The first is the more potent here.

For `O=C1NC(=O)C(c2ccc(Oc3ccc(Cl)cc3)cc2)(N2CCN(c3ccc(S(=O)(=O)NC(CO)(CO)CO)cc3)CC2)C(=O)N1` [Example 5 - no. 19, 4-(4-5-[4-(4-Chloro-phenoxy)-phenyl]-2,4,6-trioxo-hexahydro-pyrimidin-5-yl-piperazin-1-yl)-N-(2-hydroxy-1,1-bis-hydroxymethyl-ethyl)-benzenesulfonamide], the IC50 was 9 nM.

Same assay, conditions: catalytic domain of human neutrophil collagenase (MMP-8); substrate DNP-Pro-Leu-Gly-Leu-Trp-Ala-D-Arg-NH2; 25° C.; read-out: IC50 Values of MMP-Inhibitor (vs. MMP-8, catalytic domain)

Going from `O=C1NC(=O)C(c2ccc(Oc3ccc(Cl)cc3)cc2)(N2CCN(c3ncccn3)CC2)C(=O)N1` [Example 1, 5-(4-(4-Chloro-phenoxy)-phenyl)-5-(4-pyrimidine-2-yl-piperazine)-pyrimidine-2,4,6-trione] to `O=C1NC(=O)C(c2ccc(Oc3ccc(Br)cc3)cc2)(N2CCN(c3ncccn3)CC2)C(=O)N1` [Example 3 - no. 15, 5-[4-(4-Bromo-phenoxy)-phenyl]-5-(4-pyrimidin-2-yl-piperazin-1-yl)-pyrimidine-2,4,6-trione], the IC50 falls from 10 nM to 4 nM (2.5-fold). The second is the more potent here.

Compared with `O=C1NC(=O)C(c2ccc(Oc3ccc(Cl)cc3)cc2)(N2CCN(c3cnccn3)CC2)C(=O)N1` [Example 2], `O=C1NC(=O)C(c2ccc(Oc3ccc(Cl)c(Cl)c3)cc2)(N2CCN(c3cnccn3)CC2)C(=O)N1` [Example 3 - no. 2, 5-[4-(3,4-Dichloro-phenoxy)-phenyl]-5-(2,3,5,6-tetrahydro-[1,2′]bipyrazinyl-4-yl)-pyrimidine-2,4,6-trione] is 2-fold lower in IC50: 4 nM for the first, 2 nM for the second. The second is the more potent here.

`O=C1NC(=O)C(c2ccc(Oc3ccc(Cl)c(Cl)c3)cc2)(N2CCN(c3ncccn3)CC2)C(=O)N1` [Example 3 - no. 1, 5-[4-(3,4-Dichloro-phenoxy)-phenyl]-5-(4-pyrimidin-2-yl-piperazin-1-yl)-pyrimidine-2,4,6-trione] and `NS(=O)(=O)c1ccc(N2CCN(C3(c4ccc(Oc5ccc(Br)cc5)cc4)C(=O)NC(=O)NC3=O)CC2)cc1` [Example 5 - no. 6, 4-(4-5-[4-(4-Bromo-phenoxy)-phenyl]-2,4,6-trioxo-hexahydro-pyrimidin-5-yl-piperazin-1-yl)-benzenesulfonamide] are within 1.5-fold of each other in IC50: 4 nM for the first, 2.8 nM for the second.

`O=C1NC(=O)C(c2ccc(Oc3ccc(Cl)cc3)cc2)(N2CCN(c3ccc(S(=O)(=O)NCCO)cc3)CC2)C(=O)N1` [Example 4, 4-(4-5-[4-(4-Chloro-phenoxy)-phenyl]-2,4,6-trioxo-hexahydro-pyrimidin-5-yl-piperazin-1-yl)-N-(2-hydroxy-ethyl)-benzenesulfonamide] and `CN(C)CCNS(=O)(=O)c1ccc(N2CCN(C3(c4ccc(Oc5ccc(Br)cc5)cc4)C(=O)NC(=O)NC3=O)CC2)cc1` [Example 5 - no. 7, 4-(4-5-[4-(4-Bromo-phenoxy)-phenyl]-2,4,6-trioxo-hexahydro-pyrimidin-5-yl-piperazin-1-yl)-N-(2-dimethylamino-ethyl)-benzenesulfonamide] are within 1.5-fold of each other in IC50: 10 nM for the first, 13 nM for the second.

In the case of `O=C1NC(=O)C(c2ccc(Oc3ccccc3)cc2)(N2CCN(c3ccc(S(=O)(=O)NC(CO)(CO)CO)cc3)CC2)C(=O)N1` [Example 5 - no. 18, N-(2-Hydroxy-1,1-bis-hydroxymethyl-ethyl)-4,4-[2,4,6-trioxo-5-(4-phenoxy-phenyl)-hexahydro-pyrimidin-5-yl]-piperazin-1-yl-benzenesulfonamide], the IC50 is reported as 13 nM.
